# Values of other authors, collected in article PMC9762682, “Tocotrienols: Exciting Biological and Pharmacological Properties of Tocotrienols and Naturally Occurring Compounds, Part II” (Annals of clinical case reports, 2022).
# Read-outs that look alike come from different tables or passages of the source.
# How the values were obtained:
# Pancreas cancer cells = system: Pancreas cancer cells; set-up: method as in PMID 29606130
# [1] = system: hypercholesterolemic subjects
# [2] = system: 20S rabbit muscle proteasome
# B-Lymphocyte cells = system: B-Lymphocyte cells; set-up: method as in PMID 29606130; value at effective dose: unit not given here;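 on IC50: anti-proliferation of cancer cells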
# T-cells (Jurkat) = system: T-cells (Jurkat); set-up: method as in PMID 29606130
# [3] = system: plasma TNF-α, IL-2, IL-4, IL-6, IL-8, IL-10; set-up: method as in earlier work; conditions: 250 mg/d + AHA Step-1 diet; baseline = 100
# plasma miRNAs = system: plasma miRNAs; set-up: method as in ref 14 = [14]; PMID 27493840; doi:10.4172/2155-9880.1000434; 14. Qureshi AA , Khan DA , Saleem S , Silswal N , Trias AM , Tan B , Pharmacokinetics and bioavailability of Annatto δ-tocotrienol in healthy fed subjects . J Clin Exp Cardiol . 2015; 6 : 11 . 10.417; conditions: for plasma miR122a / plasma miR-1 / plasma miR-7 / plasma miR-9 / plasma miR-15b / plasma miR-17-5p / plasma miR-19a / plasma miR-19b / plasma miR-24 / plasma miR-26a / plasma miR-34a / plasma miR-106a / plasma miR-107 / plasma miR-132 / plasma miR-143 / plasma miR-145 / plasma miR-148a / plasma miR-181a / plasma miR-182 / plasma miR-192 / plasma miR-194 / plasma miR-196a / plasma miR-199a / plasma miR-204 / plasma miR-205 / plasma miR-222 / plasma miR-342: 0-h = 100
# Lung cancer cells = system: Lung cancer cells; set-up: method as in PMID 29606130; value at effective dose: unit not given here
# Breast cancer cells = system: Breast cancer cells; set-up: method as in PMID 29606130; value at effective dose: unit not given here;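 on IC50: anti-proliferation of cancer cells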
# [4] = serum, two capsules/d for 24-weeks
# [5] = δ-tocotrienol treatment, pharmacokinetic study
structure (smiles),measurement,setting,value
CC(C)=CCC/C(C)=C/CC/C(C)=C/CC[C@]1(C)CCc2cc(O)cc(C)c2O1 [δ-Tocotrienol],IC50,Pancreas cancer cells,10 µM
same,percentage of control at IC50 dose,Pancreas cancer cells,36%
same,effective dose,Pancreas cancer cells; 48 h,20 µM
same,percentage of control at effective dose,Pancreas cancer cells; 48 h,5%
same,reduction of LDL-cholesterol (maximum effect),[1]; 250 mg/d + AHA Step-1 diet,18%
same,reduction of total cholesterol (maximum effect),[1]; 250 mg/d + AHA Step-1 diet,15%
same,reduction of triglycerides (maximum effect),[1]; 250 mg/d + AHA Step-1 diet,14%
same,effect on HDL-cholesterol,[1]; 125-750 mg/d + AHA Step-1 diet,without affecting
same,levels of lipid parameters,[1]; above 500 mg/d dose + AHA Step-1 diet,induction
same,chymotrypsin-like activity of 20S rabbit muscle proteasome,[2]; 40 μM,inhibition
same,chymotrypsin-like activity of 20S rabbit muscle proteasome,[2]; 80 μM,activation
same,IC50,B-Lymphocyte cells,10 µM
same,effective dose,B-Lymphocyte cells,20 µM
same,percentage of control at IC50 dose,B-Lymphocyte cells,55%
same,percentage of control at effective dose,B-Lymphocyte cells,21%
same,value at effective dose,B-Lymphocyte cells,2.7 ± 1.5
same,IC50,T-cells (Jurkat),20 µM
same,percentage of control at IC50 dose,T-cells (Jurkat),32%
same,"Fasting Glucose, Post-dose, percentage of control (pre-dose) in parentheses",people with T2DM; [4],93%
same,"MDA, Post-dose",people with T2DM; [4],3.22 µmol/L
same,"MDA, Post-dose, percentage of control (pre-dose) in parentheses",people with T2DM; [4],89%
same,"hs-CRP, Post-dose",people with T2DM; [4],3.10 mg/L
same,"hs-CRP, Post-dose, percentage of control (pre-dose) in parentheses",people with T2DM; [4],88%
same,"Fasting Glucose, Post-dose","people with T2DM; serum, two capsules/d for 24-weeks (δ-tocotrienol 250 mg, vitamin D3 5000 IU, resveratrol 250 mg per capsule)",6.85 mmol/L
same,"Fasting HbA1c, Post-dose",people with T2DM; two capsules/d for 24-weeks,7.79%
same,"Fasting HbA1c, Post-dose, percentage of control (pre-dose) in parentheses",people with T2DM; two capsules/d for 24-weeks,92%
same,"HOMA-IR, Post-dose",people with T2DM; two capsules/d for 24-weeks,4.51
same,"HOMA-IR, Post-dose, percentage of control (pre-dose) in parentheses",people with T2DM; two capsules/d for 24-weeks,86%
same,plasma IL-2,[3],55.5 ± 0.71
same,plasma IL-4,[3],49.0 ± 1.41
same,plasma IL-6,[3],38.5 ± 2.21
same,plasma IL-8,[3],43.5 ± 0.71
same,plasma IL-10,[3],63.5 ± 2.12
same,plasma TNF-α,[3],48.5 ± 0.7
same,plasma miR122a,"plasma miRNAs; 3-h, 125 mg δ-tocotrienol",166%
same,plasma miR-1,"plasma miRNAs; 3-h, 125 mg δ-tocotrienol",78%
same,plasma miR-7,"plasma miRNAs; 3-h, 125 mg δ-tocotrienol",94%
same,plasma miR-9,"plasma miRNAs; 3-h, 125 mg δ-tocotrienol",88%
same,plasma miR-15b,"plasma miRNAs; 3-h, 125 mg δ-tocotrienol",110%
same,plasma miR-17-5p,"plasma miRNAs; 3-h, 125 mg δ-tocotrienol",106%
same,plasma miR-19a,"plasma miRNAs; 3-h, 125 mg δ-tocotrienol",95%
same,plasma miR-19b,"plasma miRNAs; 3-h, 125 mg δ-tocotrienol",91%
same,plasma miR-24,"plasma miRNAs; 3-h, 125 mg δ-tocotrienol",77%
same,plasma miR-26a,"plasma miRNAs; 3-h, 125 mg δ-tocotrienol",80%
same,plasma miR-34a,"plasma miRNAs; 3-h, 125 mg δ-tocotrienol",72%
same,plasma miR-106a,"plasma miRNAs; 3-h, 125 mg δ-tocotrienol",74%
same,plasma miR-107,"plasma miRNAs; 3-h, 125 mg δ-tocotrienol",156%
same,plasma miR-132,"plasma miRNAs; 3-h, 125 mg δ-tocotrienol",199%
same,plasma miR-143,"plasma miRNAs; 3-h, 125 mg δ-tocotrienol",63%
same,plasma miR-145,"plasma miRNAs; 3-h, 125 mg δ-tocotrienol",54%
same,plasma miR-148a,"plasma miRNAs; 3-h, 125 mg δ-tocotrienol",208%
same,plasma miR-181a,"plasma miRNAs; 3-h, 125 mg δ-tocotrienol",48%
same,plasma miR-182,"plasma miRNAs; 3-h, 125 mg δ-tocotrienol",76%
same,plasma miR-192,"plasma miRNAs; 3-h, 125 mg δ-tocotrienol",28%
same,plasma miR-194,"plasma miRNAs; 3-h, 125 mg δ-tocotrienol",50%
same,plasma miR-196a,"plasma miRNAs; 3-h, 125 mg δ-tocotrienol",65%
same,plasma miR-199a,"plasma miRNAs; 3-h, 125 mg δ-tocotrienol",81%
same,plasma miR-204,"plasma miRNAs; 3-h, 125 mg δ-tocotrienol",45%
same,plasma miR-205,"plasma miRNAs; 3-h, 125 mg δ-tocotrienol",39%
same,plasma miR-222,"plasma miRNAs; 3-h, 125 mg δ-tocotrienol",55%
same,plasma miR-342,"plasma miRNAs; 3-h, 125 mg δ-tocotrienol",70%
same,plasma miR122a,"plasma miRNAs; 6-h, 500 mg δ-tocotrienol",196%
same,plasma miR-1,"plasma miRNAs; 6-h, 500 mg δ-tocotrienol",63%
same,plasma miR-7,"plasma miRNAs; 6-h, 500 mg δ-tocotrienol",85%
same,plasma miR-9,"plasma miRNAs; 6-h, 500 mg δ-tocotrienol",44%
same,plasma miR-15b,"plasma miRNAs; 6-h, 500 mg δ-tocotrienol",132%
same,plasma miR-17-5p,"plasma miRNAs; 6-h, 500 mg δ-tocotrienol",168%
same,plasma miR-19a,"plasma miRNAs; 6-h, 500 mg δ-tocotrienol",36%
same,plasma miR-19b,"plasma miRNAs; 6-h, 500 mg δ-tocotrienol",70%
same,plasma miR-24,"plasma miRNAs; 6-h, 500 mg δ-tocotrienol",45%
same,plasma miR-26a,"plasma miRNAs; 6-h, 500 mg δ-tocotrienol",62%
same,plasma miR-34a,"plasma miRNAs; 6-h, 500 mg δ-tocotrienol",59%
same,plasma miR-106a,"plasma miRNAs; 6-h, 500 mg δ-tocotrienol",56%
same,plasma miR-107,"plasma miRNAs; 6-h, 500 mg δ-tocotrienol",173%
same,plasma miR-132,"plasma miRNAs; 6-h, 500 mg δ-tocotrienol",145%
same,plasma miR-143,"plasma miRNAs; 6-h, 500 mg δ-tocotrienol",36%
same,plasma miR-145,"plasma miRNAs; 6-h, 500 mg δ-tocotrienol",44%
same,plasma miR-148a,"plasma miRNAs; 6-h, 500 mg δ-tocotrienol",233%
same,plasma miR-181a,"plasma miRNAs; 6-h, 500 mg δ-tocotrienol",21%
same,plasma miR-182,"plasma miRNAs; 6-h, 500 mg δ-tocotrienol",64%
same,plasma miR-192,"plasma miRNAs; 6-h, 500 mg δ-tocotrienol",21%
same,plasma miR-194,"plasma miRNAs; 6-h, 500 mg δ-tocotrienol",21%
same,plasma miR-196a,"plasma miRNAs; 6-h, 500 mg δ-tocotrienol",43%
same,plasma miR-199a,"plasma miRNAs; 6-h, 500 mg δ-tocotrienol",65%
same,plasma miR-204,"plasma miRNAs; 6-h, 500 mg δ-tocotrienol",41%
same,plasma miR-205,"plasma miRNAs; 6-h, 500 mg δ-tocotrienol",45%
same,plasma miR-222,"plasma miRNAs; 6-h, 500 mg δ-tocotrienol",51%
same,plasma miR-342,"plasma miRNAs; 6-h, 500 mg δ-tocotrienol",52%
same,"expression of miR-107, miR-122a, and miR-132",plasma miRNAs; [5],up-regulated
same,gene expression of miR-34a,plasma miRNAs; [5],down-regulated
same,IC50,Lung cancer cells,20 µM
same,effective dose,Lung cancer cells,20 µM
same,percentage of control at IC50 dose,Lung cancer cells,11%
same,percentage of control at effective dose,Lung cancer cells,11%
same,value at effective dose,Lung cancer cells,8.3 ± 2.1
same,IC50,Breast cancer cells,10 µM
same,effective dose,Breast cancer cells,20 µM
same,percentage of control at IC50 dose,Breast cancer cells,49%
same,percentage of control at effective dose,Breast cancer cells,56%
same,value at effective dose,Breast cancer cells,10.7 ± 0.6
